# Measured values from paper doi:10.1101/2021.08.31.458471v1 (biorxiv, 2021).
# Tests used:
# [1] = target: McpB signaling domain (Bacillus subtilis, UniProt P39215); conditions: 20 µM protein, 2 mM benzene, PBS in D2O pH 7.4, 298 K
# [2] = target: McpA signaling domain (McpAc) (Bacillus subtilis, UniProt P39214); test: biochemical
# McpA signaling domain (McpAc), sequence (P39214 359-661): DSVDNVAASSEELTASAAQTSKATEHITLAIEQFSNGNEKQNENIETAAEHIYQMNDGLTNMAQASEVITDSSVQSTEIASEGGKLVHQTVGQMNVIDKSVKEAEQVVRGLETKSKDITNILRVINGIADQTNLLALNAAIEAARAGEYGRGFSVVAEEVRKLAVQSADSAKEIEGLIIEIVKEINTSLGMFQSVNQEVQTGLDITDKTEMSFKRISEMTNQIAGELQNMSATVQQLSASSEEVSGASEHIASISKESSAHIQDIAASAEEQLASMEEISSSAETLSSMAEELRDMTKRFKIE
# McpB signaling domain, sequence (P39215 359-662): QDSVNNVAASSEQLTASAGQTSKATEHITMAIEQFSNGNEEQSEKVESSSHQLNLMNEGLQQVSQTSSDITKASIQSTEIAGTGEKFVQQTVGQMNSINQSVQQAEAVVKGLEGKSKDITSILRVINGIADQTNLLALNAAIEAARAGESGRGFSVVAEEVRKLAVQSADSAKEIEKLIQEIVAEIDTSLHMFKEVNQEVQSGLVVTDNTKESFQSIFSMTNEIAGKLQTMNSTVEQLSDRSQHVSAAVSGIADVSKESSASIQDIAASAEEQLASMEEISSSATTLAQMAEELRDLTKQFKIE
STD-AF [1],SMILES,Kd [2]
16.4%,c1ccccc1 [benzene],
,Oc1ccccc1 [phenol],4.8 mM
